In US20220040136A1, “TREATMENT OF VULVOVAGINAL DISORDERS” (University of Rochester, priority 2018, published 2022):

Test system: C57BL/6J mice
Assay: Mouse model of LPV, DHA cream (Example 4)
Type: in vivo
Excerpt: A total of 36 C57BL/6J mice were subjected to 6 weeks of allodynia induction using the protocol described above. Briefly, zymosan was used to induce sustained vulvar allodynia, measured by pain threshold testing. An electronic vonFrey system (MOUSEMET™, Topcat Metrology) was used to apply gradually increasing force to the vulva at the injection site, located at the midline posterior vulvar (between the vaginal opening and anus) (FIG. 7A). The hair was applied perpendicular to the vulvar surface with a gradually increasing force within a range of 0.100 g to 7.0 g (FIG. 7B). A positive response was defined as either (1) a reflexive, coordinated four extremity extension, (2) jump, or (3) immediate grooming of the vulva in response to vulvar stimulus, at which point the peak force was recorded.
During allodynia induction, mice receive weekly injections of zymosan (10 mg/ml in 10 μl saline) for a maximum of 6 injections, until a >33% reduction in pain threshold is observed for 2 consecutive weeks of testing (FIG. 7C). Pain threshold testing was performed at the same time every week, immediately prior to zymosan injection; after the first 2 weeks of injections, a determination of threshold change was performed after pain testing to determine which mice would receive additional zymosan injections. […]

CC/C=C\C/C=C\C/C=C\C/C=C\C/C=C\C/C=C\CCC(=O)O [DHA, docosahexaenoic acid]
mice recovered from allodynia (DHA cream group (12 mice), after 6 weeks of treatment, recovery = 70% improvement over lowest pain threshold for 2 consecutive tests): 9 mice
first week at which mice began to recover (DHA group, week = first week of a two-week period with 70% improvement, FIG. 13): 1 week
